The experiment deals with Acinetobacter baumannii ATCC17978. In words: Antimicrobial susceptibility testing: 90% growth inhibitory concentration (IC90) determination, Iso-Sensitest broth. The experiment is classed as cell-based. A digest of the protocol: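 A. baumannii ATCC17978 grown in Iso-Sensitest broth across 10 compound concentrations at 35±2 °C.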
Where [1] appears, read: 90% growth inhibitory concentration, Acinetobacter baumannii ATCC17978, Iso-Sensitest broth, OD 600 nm over 16 h, read-out: ATCC17978 IC90.
The mark [2] stands for this setting: Acinetobacter baumannii, ATCC17978, 16 h, read-out: ATCC17978 IC90, 90% growth inhibitory concentration, Acinetobacter baumannii ATCC17978, Iso-Sensitest broth, OD 600 nm over 16 h.

Where a name gives a salt, the structure may show the parent alone. Read-outs that look alike come from different tables or passages of the source.

In the case of `COc1ccc(-c2cnc3c(Nc4ccc(C(=O)N5CCN[C@H](CO)C5)c(C)c4)nccn23)cc1F` [Example 419, [4-[[3-(3-fluoro-4-methoxyphenyl)imidazo[1,2-a]pyrazin-8-yl]amino]-2-methylphenyl]-[(3S)-3-(hydroxymethyl)piperazin-1-yl]methanone], under setting [1], the IC90 was 1000 nM.

In the case of `COc1ccc(-c2cnc3c(Nc4ccc(C(=O)N5CCC(CNC(CN)C(=O)O)CC5)c(C)c4)nccn23)cc1` (stereo not shown) [Example 420, 3-amino-2-[[1-[4-[[3-(4-methoxyphenyl)imidazo[1,2-a]pyrazin-8-yl]amino]-2-methylbenzoyl]piperidin-4-yl]methylamino]propanoic acid; formic acid], under setting [2], the IC90 came out at 1100 nM.

Take `COc1ccc(-c2cnc3c(Nc4ccc(C(=O)N5CC6(CCN6)C5)c(C)c4)nccn23)cc1F` [Example 421, 1,6-diazaspiro[3.3]heptan-6-yl-[4-[[3-(3-fluoro-4-methoxyphenyl)imidazo[1,2-a]pyrazin-8-yl]amino]-2-methylphenyl]methanone; 2,2,2-trifluoroacetic acid]: under setting [2], the IC90 came out at 1100 nM.

Regarding `COc1ccc(-c2cnc3c(Nc4ccc(C(=O)N5CCNC(CO)C5)c(C)c4)nccn23)cc1F` (stereo not shown) [Example 422, [4-[[3-(3-fluoro-4-methoxyphenyl)imidazo[1,2-a]pyrazin-8-yl]amino]-2-methylphenyl]-[3-(hydroxymethyl)piperazin-1-yl]methanone], under setting [1], the IC90 stood at 1100 nM.

On to `COc1ccc(-c2cnc3c(Nc4ccc(C(=O)N5CC[C@@H](N)[C@@H](O)C5)c(C)c4)nccn23)cc1F` [Example 423, [(3S,4R)-4-amino-3-hydroxypiperidin-1-yl]-[4-[[3-(3-fluoro-4-methoxyphenyl)imidazo[1,2-a]pyrazin-8-yl]amino]-2-methylphenyl]methanone; hy-drochloride], for which the IC90 under setting [1] was found to be 1100 nM.

Regarding `COc1ccc(-c2cnc3c(Nc4ccc(C(=O)N5CCNC(C6CC6)C5)c(C)c4)nccn23)cc1F` (stereo not shown) [Example 424, (3-cyclopropylpiperazin-1-yl)-[4-[[3-(3-fluoro-4-methoxyphenyl)imidazo[1,2-a]pyrazin-8-yl]amino]-2-methylphenyl]methanone; hy-drochloride], the IC90 under setting [1] was 1200 nM.

Regarding `COc1ccc(-c2cnc3c(Nc4ccc(C(=O)N5C[C@@H](O)[C@H](O)C5)c(C)c4)nccn23)cc1F` [Example 425, [(3R,4R)-3,4-dihydroxypyrrolidin-1-yl]-[4-[[3-(3-fluoro-4-methoxyphenyl)imidazo[1,2-a]pyrazin-8-yl]amino]-2-methylphenyl]methanone], the IC90 under setting [1] came to 1200 nM.

Take `COc1ccc(-c2cnc3c(Nc4ccc(C(=O)N5CCN(C6CC6)CC5)c(C)c4)nccn23)cc1F` [Example 426, (4-cyclopropylpiperazin-1-yl)-[4-[[3-(3-fluoro-4-methoxyphenyl)imidazo[1,2-a]pyrazin-8-yl]amino]-2-methylphenyl]methanone]: under setting [1], the IC90 is 1200 nM.

Take `COc1ccc(-c2cnc3c(Nc4ccc(C(=O)N5CCC(C(=O)NCc6ccc(C(=O)O)cc6)CC5)c(C)c4)nccn23)cc1F` [Example 427, 4-[[[1-[4-[[3-(3-fluoro-4-methoxyphenyl)imidazo[1,2-a]pyrazin-8-yl]amino]-2-methylbenzoyl]piperidine-4-carbonyl]amino]methyl]ben-zoic acid]: under setting [1], the IC90 was determined as 1200 nM.

On to `Cc1cc(Nc2nccn3c(-c4ccc(O)c(F)c4)cnc23)ccc1C(=O)N1CCC(CN)CC1` [Example 428, [4-(aminomethyl)piperidin-1-yl]-[4-[[3-(3-fluoro-4-hydroxyphenyl)imidazo[1,2-a]pyrazin-8-yl]amino]-2-methylphenyl]methanone], for which the IC90 under setting [1] stood at 1300 nM.

On to `COc1ccc(-c2cnc3c(Nc4ccc(C(=O)N5CCC(CNCC(=O)O)CC5)c(C)c4)nccn23)cc1` [Example 431, formic acid; 2-[[1-[4-[[3-(4-methoxyphenyl)imidazo[1,2-a]pyrazin-8-yl]amino]-2-methylbenzoyl]piperidin-4-yl]methylamino]acetic acid], for which, under setting [2], the IC90 is 1500 nM.

Regarding `COc1ccc(-c2cnc3c(Nc4ccc(C(=O)N5CCC(C(=O)N(C)C[C@H](O)[C@@H](O)[C@H](O)[C@H](O)CO)CC5)c(C)c4)nccn23)cc1F` [Example 432, 1-[4-[[3-(3-fluoro-4-methoxyphenyl)imidazo[1,2-a]pyrazin-8-yl]amino]-2-methylbenzoyl]-N-methyl-N-[(2S,3R,4R,5R)-2,3,4,5,6-pentahydroxyhexyl]piperidine-4-carboxamide], the IC90 under setting [1] came to 1500 nM.

With `COc1ccc(-c2cnc3c(Nc4ccc(C(=O)N5CCC(C(=O)NC6(C(=O)O)CC6)CC5)c(C)c4)nccn23)cc1F` [Example 433, 1-[[1-[4-[[3-(3-fluoro-4-methoxyphenyl)imidazo[1,2-a]pyrazin-8-yl]amino]-2-methylbenzoyl]piperidine-4-carbonyl]amino]cyclopropane-1-carboxylic acid], the IC90 under setting [1] stood at 1600 nM.

As to `COc1ccc(-c2cnc3c(Nc4ccc(C(=O)N5CC6(C5)CN(C5CC5)C6)c(C)c4)nccn23)cc1F` [Example 434, (6-cyclopropyl-2,6-diazaspiro[3.3]heptan-2-yl)-[4-[[3-(3-fluoro-4-methoxyphenyl)imidazo[1,2-a]pyrazin-8-yl]amino]-2-methylphenyl]methanone], the IC90 under setting [1] was 1800 nM.

As to `COc1ccc(-c2cnc3c(Nc4ccc(C(=O)N5CCC(CNCCC(=O)O)CC5)c(C)c4)nccn23)cc1` [Example 435, 3-[[1-[4-[[3-(4-methoxyphenyl)imidazo[1,2-a]pyrazin-8-yl]amino]-2-methylbenzoyl]piperidin-4-yl]methylamino]propanoic acid], under setting [1], the IC90 amounted to 3200 nM.

In the case of `COc1ccc(-c2cnc3c(Nc4ccc(C(=O)N5CCN(C(=O)N6CCN[C@@H](C(=O)O)C6)CC5)c(C)c4)nccn23)c(F)c1F` [Example 436, (2R)-4-[4-[4-[[3-(2,3-difluoro-4-methoxyphenyl)imidazo[1,2-a]pyrazin-8-yl]amino]-2-methylbenzoyl]piperazine-1-carbonyl]piperazine-2-carboxylic acid; formic acid], the IC90 under setting [2] stood at 760 nM.

For the compound `Cc1cc(Nc2nccn3c(-c4ccc(OC(F)F)cc4)cnc23)ccc1C(=O)N1CCN(C(=O)[C@@H](N)Cc2cnc[nH]2)CC1` [Example 437, (2S)-2-amino-1-[4-[4-[[3-[4-(difluoromethoxy)phenyl]imi-dazo[1,2-a]pyrazin-8-yl]amino]-2-methylbenzoyl]piperazin-1-yl]-3-(1H-imidazol-5-yl)propan-1-one; hydrochloride], under setting [2], the IC90 stood at 770 nM.

Consider `Cc1cc(Nc2nccn3c(-c4ccc(OC(F)F)cc4)cnc23)ccc1C(=O)N1CCN(C(=O)[C@@H]2CNCCN2)CC1` [Example 441, [4-[[3-[4-(difluoromethoxy)phenyl]imi-dazo[1,2-a]pyrazin-8-yl]amino]-2-methylphenyl]-[4-[(2S)-piperazine-2-carbonyl]piperazin-1-yl]methanone; hydrochloride], for which, under setting [2], the IC90 stood at 1200 nM.

For the compound `Cc1cc(Nc2nccn3c(-c4ccc(OCC#N)c(F)c4F)cnc23)ccc1C(=O)N1CCN(C(=O)N2CCN[C@H](C(=O)O)C2)CC1` [Example 442, (2S)-4-[4-[4-[[3-[4-(cyanomethoxy)-2,3-difluorophenyl]imidazo[1,2-a]pyrazin-8-yl]amino]-2-methylbenzoyl]piperazine-1-carbonyl]piperazine-2-carboxylic acid], the IC90 under setting [1] was 1200 nM.

As to `COC(=O)CC[C@H](N)C(=O)N1CCN(C(=O)c2ccc(Nc3nccn4c(-c5ccc(OC(F)F)cc5)cnc34)cc2C)CC1` [Example 444, methyl (4S)-4-amino-5-[4-[4-[[3-[4-(difluoromethoxy)phenyl]imi-dazo[1,2-a]pyrazin-8-yl]amino]-2-methylbenzoyl]piperazin-1-yl]-5-oxopentanoate; hydrochloride], the IC90 under setting [2] was determined as 1900 nM.

With `Cc1cc(Nc2nccn3c(-c4ccc(OC(F)F)cc4)cnc23)ccc1C(=O)N1CCN(C(=O)N2CCN[C@@H](C(=O)O)C2)CC1` [Example 445, (2R)-4-[4-[4-[[3-[4-(difluoromethoxy)phenyl]imi-dazo[1,2-a]pyrazin-8-yl]amino]-2-methylbenzoyl]piperazine-1-carbonyl]piperazine-2-carboxylic acid; hydrochloride], the IC90 under setting [2] turned out to be 1900 nM.

For `Cc1cc(Nc2nccn3c(-c4ccc(OS(C)(=O)=O)c(F)c4F)cnc23)ccc1C(=O)N1CCN(C(=O)C2CCNCC2)CC1` [Example 446, [2,3-difluoro-4-[8-[3-methyl-4-[4-(piperidine-4-carbonyl)piperazine-1-carbonyl]anilino]imidazo[1,2-a]pyrazin-3-yl]phenyl] methanesulfonate], the IC90 under setting [1] stood at 2000 nM.

As to `Cc1cc(Nc2nccn3c(-c4ccc(OC(F)F)cc4)cnc23)ccc1C(=O)N1CCN(C(=O)C2=CCNCC2)CC1` [Example 447, [4-[[3-[4-(difluoromethoxy)phenyl]imi-dazo[1,2-a]pyrazin-8-yl]amino]-2-methylphenyl]-[4-(1,2,3,6-tetrahydropyridine-4-carbonyl)piperazin-1-yl]methanone; hydrochloride], the IC90 under setting [2] was determined as 2000 nM.

On to `Cc1cc(Nc2nccn3c(-c4ccc(OC(F)F)cc4)cnc23)ccc1C(=O)N1CCN(C(=O)[C@@H](N)CC(=O)O)CC1` [Example 448, (3S)-3-amino-4-[4-[4-[[3-[4-(difluoromethoxy)phenyl]imi-dazo[1,2-a]pyrazin-8-yl]amino]-2-methylbenzoyl]piperazin-1-yl]-4-oxobutanoic acid; hydrochloride], for which, under setting [2], the IC90 amounted to 2200 nM.

Regarding `Cc1cc(Nc2nccn3c(-c4ccc(OCC#N)c(F)c4F)cnc23)ccc1C(=O)N1CCN(C(=O)N2CCN[C@@H](C(=O)O)C2)CC1` [Example 450, (2R)-4-[4-[4-[[3-[4-(cyanomethoxy)-2,3-difluorophenyl]imidazo[1,2-a]pyrazin-8-yl]amino]-2-methylbenzoyl]piperazine-1-carbonyl]piperazine-2-carboxylic acid], the IC90 under setting [1] is 2400 nM.

(Values after patent US20230011869A1 (Hoffmann-La Roche Inc., priority 2018, published 2023).)
